Results on 10 molecules are retold here after patent US20230111310A1, “CARBOXYLIC ACID DERIVATIVE-SUBSTITUTED IMINO ARYL COMPOUND, PREPARATION METHOD THEREFOR, HERBICIDAL COMPOSITION AND USE THEREOF” (Qingdao Kingagroot Chemical Compound Co., Ltd., priority 2020, published 2023).

Common to all, as to assay: Weeding effect in post-emergence stage
What all share (format): in vivo
What all share (details): fresh weight control rate level

The subject of one test is Abutilon theophrasti. In outline: (§1)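 Post-emergence spray tower; 2-3 leaf plants (2 wk after sowing, soil pots, greenhouse). Formulation: acetone, Tween 80, methyl oleate EC 1.5 liter/ha as synergist, water. Rates 500–7.5 g/ha. Growth control rate read at 3 wk; n=3, averaged.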
A further test has as its system Alopecurus japonicus. In outline:
as §1

For the next test, the system named is Digitaria sanguinalis. In outline: as §1
A further test has as its system Setaria viridis. In outline:
as §1

The subject of another test is Eleusine indica. In outline:
as §1

In another test the test system is Echinochloa crusgalli. In outline:
as §1

Turning to `CCSC(=O)C(C)O/N=C/c1cc(-n2c(=O)cc(C(F)(F)F)n(C)c2=O)c(F)cc1Cl` (stereo not drawn) [Compound 398], in the test on Abutilon theophrasti (Dose 15 g/ha), the “Weeding effect in post-emergence stage, Abutilon theophrasti (level)” value (from here on “Weeding effect … Abutilon theophrasti (level)”) is reported as 5 (Level 5: growth control rate is above 85%). Further, the “Weeding effect in post-emergence stage, Alopecurus japonicus (level)” value (“Weeding effect … Alopecurus japonicus (level)” below) in the test on Alopecurus japonicus (Dose 15 g/ha) is recorded as 5 (Level 5: growth control rate is above 85%). Further, the “Weeding effect in post-emergence stage, Digitaria sanguinalis (level)” value (shortened to “Weeding effect … Digitaria sanguinalis (level)”) with Digitaria sanguinalis (Dose 15 g/ha) was 5 (Level 5: growth control rate is above 85%). The “Weeding effect in post-emergence stage, Setaria viridis (level)” value (from here on “Weeding effect … Setaria viridis (level)”) with Setaria viridis (Dose 15 g/ha) is 5 (Level 5: growth control rate is above 85%). In the test with Eleusine indica (Dose 15 g/ha), the “Weeding effect in post-emergence stage, Eleusine indica (level)” value (shortened to “Weeding effect … Eleusine indica (level)”) was 5 (Level 5: growth control rate is above 85%). Also, the “Weeding effect in post-emergence stage, Echinochloa crusgalli (level)” value (“Weeding effect … Echinochloa crusgalli (level)” below) in the test with Echinochloa crusgalli (Dose 15 g/ha) was 5 (Level 5: growth control rate is above 85%).

As for `CCCSC(=O)C(C)O/N=C/c1cc(-n2c(=O)cc(C(F)(F)F)n(C)c2=O)c(F)cc1Cl` (stereo not drawn) [Compound 399], in the test with Abutilon theophrasti (Dose 15 g/ha), the “Weeding effect … Abutilon theophrasti (level)” value is reported as 5 (Level 5: growth control rate is above 85%). The “Weeding effect … Alopecurus japonicus (level)” value in the test on Alopecurus japonicus (Dose 15 g/ha) was 5 (Level 5: growth control rate is above 85%). For the same molecule, the “Weeding effect … Digitaria sanguinalis (level)” value in the test with Digitaria sanguinalis (Dose 15 g/ha) is 5 (Level 5: growth control rate is above 85%). Also, in the test on Setaria viridis (Dose 15 g/ha), the “Weeding effect … Setaria viridis (level)” value is on record as 5 (Level 5: growth control rate is above 85%). In addition, in the test on Eleusine indica (Dose 15 g/ha), the “Weeding effect … Eleusine indica (level)” value is given as 5 (Level 5: growth control rate is above 85%). In addition, in the test with Echinochloa crusgalli (Dose 15 g/ha), the “Weeding effect … Echinochloa crusgalli (level)” value is on record as 5 (Level 5: growth control rate is above 85%).

In the case of `CC(C)SC(=O)C(C)O/N=C/c1cc(-n2c(=O)cc(C(F)(F)F)n(C)c2=O)c(F)cc1Cl` (stereo not drawn) [Compound 400], the “Weeding effect … Abutilon theophrasti (level)” value in the test on Abutilon theophrasti (Dose 15 g/ha) was 5 (Level 5: growth control rate is above 85%). Moreover, in the test with Alopecurus japonicus (Dose 15 g/ha), the “Weeding effect … Alopecurus japonicus (level)” value is 4 (Level 4: growth control rate is greater than or equal to 60% and less than 85%). For the same molecule, the “Weeding effect … Digitaria sanguinalis (level)” value with Digitaria sanguinalis (Dose 15 g/ha) is recorded as 5 (Level 5: growth control rate is above 85%). Moreover, the “Weeding effect … Setaria viridis (level)” value with Setaria viridis (Dose 15 g/ha) is recorded as 5 (Level 5: growth control rate is above 85%). Moreover, the “Weeding effect … Eleusine indica (level)” value with Eleusine indica (Dose 15 g/ha) is 5 (Level 5: growth control rate is above 85%). For the same molecule, the “Weeding effect … Echinochloa crusgalli (level)” value with Echinochloa crusgalli (Dose 15 g/ha) is given as 5 (Level 5: growth control rate is above 85%).

`COC(=O)CSC(=O)C(C)O/N=C/c1cc(-n2c(=O)cc(C(F)(F)F)n(C)c2=O)c(F)cc1Cl` (stereo not drawn) [Compound 406]: the “Weeding effect … Abutilon theophrasti (level)” value with Abutilon theophrasti (Dose 15 g/ha) is given as 5 (Level 5: growth control rate is above 85%). In the test on Alopecurus japonicus (Dose 15 g/ha), the “Weeding effect … Alopecurus japonicus (level)” value is 4 (Level 4: growth control rate is greater than or equal to 60% and less than 85%). Besides, in the test on Digitaria sanguinalis (Dose 15 g/ha), the “Weeding effect … Digitaria sanguinalis (level)” value is on record as 5 (Level 5: growth control rate is above 85%). Moreover, the “Weeding effect … Setaria viridis (level)” value in the test on Setaria viridis (Dose 15 g/ha) is given as 5 (Level 5: growth control rate is above 85%). Besides, in the test with Eleusine indica (Dose 15 g/ha), the “Weeding effect … Eleusine indica (level)” value was 5 (Level 5: growth control rate is above 85%). In addition, the “Weeding effect … Echinochloa crusgalli (level)” value in the test on Echinochloa crusgalli (Dose 15 g/ha) is recorded as 5 (Level 5: growth control rate is above 85%).

With `CC(O/N=C/c1cc(-n2c(=O)cc(C(F)(F)F)n(C)c2=O)c(F)cc1Cl)C(=O)SCc1ccccc1` (stereo not drawn) [Compound 409], the “Weeding effect … Abutilon theophrasti (level)” value in the test on Abutilon theophrasti (Dose 30 g/ha) was 5 (Level 5: growth control rate is above 85%). Also, in the test with Alopecurus japonicus (Dose 30 g/ha), the “Weeding effect … Alopecurus japonicus (level)” value was 5 (Level 5: growth control rate is above 85%). Also, the “Weeding effect … Digitaria sanguinalis (level)” value in the test with Digitaria sanguinalis (Dose 30 g/ha) is 5 (Level 5: growth control rate is above 85%). Moreover, in the test on Setaria viridis (Dose 30 g/ha), the “Weeding effect … Setaria viridis (level)” value was 5 (Level 5: growth control rate is above 85%). For the same molecule, in the test on Eleusine indica (Dose 30 g/ha), the “Weeding effect … Eleusine indica (level)” value is 5 (Level 5: growth control rate is above 85%). Moreover, the “Weeding effect … Echinochloa crusgalli (level)” value with Echinochloa crusgalli (Dose 30 g/ha) was 5 (Level 5: growth control rate is above 85%).

Consider `COC(=O)CCNC(=O)C(C)O/N=C/c1cc(-n2c(=O)cc(C(F)(F)F)n(C)c2=O)c(F)cc1Cl` (stereo not drawn) [Compound 416], for which the “Weeding effect … Abutilon theophrasti (level)” value in the test with Abutilon theophrasti (Dose 15 g/ha) is 5 (Level 5: growth control rate is above 85%). The “Weeding effect … Alopecurus japonicus (level)” value in the test on Alopecurus japonicus (Dose 15 g/ha) was 4 (Level 4: growth control rate is greater than or equal to 60% and less than 85%). Moreover, the “Weeding effect … Digitaria sanguinalis (level)” value in the test on Digitaria sanguinalis (Dose 15 g/ha) was 5 (Level 5: growth control rate is above 85%). The “Weeding effect … Setaria viridis (level)” value in the test on Setaria viridis (Dose 15 g/ha) is 5 (Level 5: growth control rate is above 85%). Moreover, the “Weeding effect … Eleusine indica (level)” value in the test with Eleusine indica (Dose 15 g/ha) is on record as 5 (Level 5: growth control rate is above 85%). Besides, in the test on Echinochloa crusgalli (Dose 15 g/ha), the “Weeding effect … Echinochloa crusgalli (level)” value was 5 (Level 5: growth control rate is above 85%).

As to `CON(C)C(=O)C(C)O/N=C/c1cc(-n2c(=O)cc(C(F)(F)F)n(C)c2=O)c(F)cc1Cl` (stereo not drawn) [Compound 419], the “Weeding effect … Abutilon theophrasti (level)” value with Abutilon theophrasti (Dose 15 g/ha) is reported as 5 (Level 5: growth control rate is above 85%). Moreover, the “Weeding effect … Alopecurus japonicus (level)” value in the test with Alopecurus japonicus (Dose 15 g/ha) is recorded as 5 (Level 5: growth control rate is above 85%). In addition, the “Weeding effect … Digitaria sanguinalis (level)” value in the test on Digitaria sanguinalis (Dose 15 g/ha) is 5 (Level 5: growth control rate is above 85%). Further, the “Weeding effect … Setaria viridis (level)” value in the test with Setaria viridis (Dose 15 g/ha) is listed as 5 (Level 5: growth control rate is above 85%). Also, the “Weeding effect … Eleusine indica (level)” value in the test on Eleusine indica (Dose 15 g/ha) is 5 (Level 5: growth control rate is above 85%). The “Weeding effect … Echinochloa crusgalli (level)” value in the test with Echinochloa crusgalli (Dose 15 g/ha) was 5 (Level 5: growth control rate is above 85%).

As to `CC(O/N=C/c1cc(-n2c(=O)cc(C(F)(F)F)n(C)c2=O)c(F)cc1Cl)C(=O)NS(=O)(=O)N(C)C(C)C` (stereo not drawn) [Compound 421], the “Weeding effect … Abutilon theophrasti (level)” value with Abutilon theophrasti (Dose 15 g/ha) is given as 5 (Level 5: growth control rate is above 85%). For the same molecule, in the test with Alopecurus japonicus (Dose 15 g/ha), the “Weeding effect … Alopecurus japonicus (level)” value was 5 (Level 5: growth control rate is above 85%). For the same molecule, the “Weeding effect … Digitaria sanguinalis (level)” value in the test on Digitaria sanguinalis (Dose 15 g/ha) is 5 (Level 5: growth control rate is above 85%). Also, the “Weeding effect … Setaria viridis (level)” value with Setaria viridis (Dose 15 g/ha) is reported as 5 (Level 5: growth control rate is above 85%). Besides, in the test with Eleusine indica (Dose 15 g/ha), the “Weeding effect … Eleusine indica (level)” value is listed as 5 (Level 5: growth control rate is above 85%). Besides, in the test on Echinochloa crusgalli (Dose 15 g/ha), the “Weeding effect … Echinochloa crusgalli (level)” value is on record as 5 (Level 5: growth control rate is above 85%).

As for `Cc1cc(C)n(C(=O)C(C)O/N=C/c2cc(-n3c(=O)cc(C(F)(F)F)n(C)c3=O)c(F)cc2Cl)n1` (stereo not drawn) [Compound 424], the “Weeding effect … Abutilon theophrasti (level)” value in the test with Abutilon theophrasti (Dose 30 g/ha) is reported as 5 (Level 5: growth control rate is above 85%). In addition, in the test with Alopecurus japonicus (Dose 30 g/ha), the “Weeding effect … Alopecurus japonicus (level)” value was 5 (Level 5: growth control rate is above 85%). Moreover, in the test with Digitaria sanguinalis (Dose 30 g/ha), the “Weeding effect … Digitaria sanguinalis (level)” value was 5 (Level 5: growth control rate is above 85%). Besides, the “Weeding effect … Setaria viridis (level)” value in the test on Setaria viridis (Dose 30 g/ha) is given as 5 (Level 5: growth control rate is above 85%). Moreover, the “Weeding effect … Eleusine indica (level)” value with Eleusine indica (Dose 30 g/ha) is listed as 5 (Level 5: growth control rate is above 85%). Moreover, the “Weeding effect … Echinochloa crusgalli (level)” value in the test on Echinochloa crusgalli (Dose 30 g/ha) is given as 5 (Level 5: growth control rate is above 85%).

`CCn1c(C(F)(F)F)cc(=O)n(-c2cc(/C=N/OC(C)C(=O)OC)c(Cl)cc2F)c1=O` (stereo not drawn) [Compound 426]: in the test with Abutilon theophrasti (Dose 250 g/ha), the “Weeding effect … Abutilon theophrasti (level)” value was 5 (Level 5: growth control rate is above 85%). Besides, the “Weeding effect … Alopecurus japonicus (level)” value in the test with Alopecurus japonicus (Dose 250 g/ha) was 5 (Level 5: growth control rate is above 85%). In the test on Digitaria sanguinalis (Dose 250 g/ha), the “Weeding effect … Digitaria sanguinalis (level)” value is on record as 5 (Level 5: growth control rate is above 85%). Moreover, in the test on Setaria viridis (Dose 250 g/ha), the “Weeding effect … Setaria viridis (level)” value was 5 (Level 5: growth control rate is above 85%). Moreover, in the test with Eleusine indica (Dose 250 g/ha), the “Weeding effect … Eleusine indica (level)” value is on record as 5 (Level 5: growth control rate is above 85%). Also, the “Weeding effect … Echinochloa crusgalli (level)” value in the test on Echinochloa crusgalli (Dose 250 g/ha) is listed as 5 (Level 5: growth control rate is above 85%).
